Data as given in PubChem BioAssay AID330 (DTP/NCI, 2004).
Where “and” joins values, the source holds several entries; their conditions need not be identical. Identical values can stand only once. Toxic doses and inconclusive results are not listed.

Tested on: P388 leukemia ip, CD2F1 mice, survival T/C
Assay: NCI In Vivo Anticancer Drug Screen. Data for tumor model P388 Leukemia (intraperitoneal) in CD2F1 (CDF1) mice
Conditions: endpoint: median survival time, higher = longer survival
Procedure, shortened: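 Mice carrying the transplanted tumor received test compound or vehicle. Survival was recorded in each group, and the value is the treated-group measurement divided by that of the vehicle-treated control group.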

[1] = dose: 50.0 mg/kg/injection, schedule: Q01DX009 (ip), vehicle: saline with Tween-80
[2] = dose: 100.0 mg/kg/injection, schedule: Q01DX009 (ip), vehicle: saline with Tween-80
[3] = dose: 200.0 mg/kg/injection, schedule: Q01DX009 (ip), vehicle: saline with Tween-80
[4] = dose: 30.0 mg/kg/injection, schedule: Q01DX005 (ip), vehicle: saline with Tween-80
[5] = dose: 60.0 mg/kg/injection, schedule: Q01DX005 (ip), vehicle: saline with Tween-80
[6] = dose: 50.0 mg/kg/injection, schedule: Q01DX005 (ip), vehicle: saline with Tween-80
[7] = dose: 100.0 mg/kg/injection, schedule: Q01DX005 (ip), vehicle: saline with Tween-80
[8] = dose: 200.0 mg/kg/injection, schedule: Q01DX005 (ip), vehicle: saline with Tween-80
[9] = dose: 120.0 mg/kg/injection, schedule: Q01DX005 (ip), vehicle: saline with Tween-80
[10] = dose: 240.0 mg/kg/injection, schedule: Q01DX005 (ip), vehicle: saline with Tween-80
[11] = dose: 100.0 mg/kg/injection, schedule: Q04DX002 (ip), vehicle: saline with Tween-80
[12] = dose: 200.0 mg/kg/injection, schedule: Q04DX002 (ip), vehicle: saline with Tween-80
[13] = dose: 50.0 mg/kg/injection, schedule: Q01DX009 (ip), vehicle: Klucel (hydroxypropylcellulose) (HPC)
[14] = dose: 100.0 mg/kg/injection, schedule: Q01DX009 (ip), vehicle: Klucel (hydroxypropylcellulose) (HPC)
[15] = dose: 200.0 mg/kg/injection, schedule: Q01DX009 (ip), vehicle: Klucel (hydroxypropylcellulose) (HPC)

O=C(O)Cc1cccc2c(=O)cc(-c3ccccc3)oc12 was tested, and the T/C (dose: 24.12 mg/kg/injection, schedule: Q01DX005 (ip), vehicle: saline) was 104 % of control, the T/C (dose: 30.0 mg/kg/injection, schedule: Q01DX009 (ip), vehicle: saline) was 101 % of control and 103 % of control and 106 % of control and the T/C (dose: 40.2 mg/kg/injection, schedule: Q01DX005 (ip), vehicle: saline) was 111 % of control. For the same molecule, the T/C (dose: 44.0 mg/kg/injection, schedule: Q01DX009 (ip), vehicle: saline) was 109 % of control and 117 % of control and 122 % of control, the T/C (dose: 45.0 mg/kg/injection, schedule: Q01DX009 (ip), vehicle: sodium bicarbonate) was 116 % of control and the T/C (dose: 50.0 mg/kg/injection, schedule: Q01DX009 (ip), vehicle: saline) was 106 % of control. For the same molecule, the T/C (dose: 60.0 mg/kg/injection, schedule: Q04DX002 (ip), vehicle: sodium bicarbonate) was 103 % of control, the T/C (dose: 67.0 mg/kg/injection, schedule: Q01DX001 (ip), vehicle: sodium bicarbonate) was 112 % of control and the T/C (dose: 90.0 mg/kg/injection, schedule: Q04DX002 (ip), vehicle: sodium bicarbonate) was 118 % of control. For the same molecule, the T/C (dose: 100.0 mg/kg/injection, schedule: Q01DX001 (ip), vehicle: sodium bicarbonate) was 107 % of control, the T/C (dose: 111.67 mg/kg/injection, schedule: Q01DX005 (ip), vehicle: saline) was 153 % of control and the T/C (dose: 150.0 mg/kg/injection, schedule: Q01DX001 (ip), vehicle: sodium bicarbonate) was 106 % of control. For the same molecule, the T/C (dose: 186.12 mg/kg/injection, schedule: Q01DX005 (ip), vehicle: saline) was 172 % of control, the T/C (dose: 200.0 mg/kg/injection, schedule: Q01DX001 (ip), vehicle: sodium bicarbonate) was 112 % of control and the T/C (dose: 223.0 mg/kg/injection, schedule: Q01DX001 (ip), vehicle: sodium bicarbonate) was 103 % of control. For the same molecule, the T/C (dose: 300.0 mg/kg/injection, schedule: Q01DX001 (ip), vehicle: sodium bicarbonate) was 116 % of control, the T/C (dose: 333.0 mg/kg/injection, schedule: Q01DX001 (ip), vehicle: sodium bicarbonate) was 112 % of control and the T/C (dose: 400.0 mg/kg/injection, schedule: Q01DX001 (ip), vehicle: sodium bicarbonate) was 114 % of control. The T/C (dose: 500.0 mg/kg/injection, schedule: Q01DX001 (ip), vehicle: sodium bicarbonate) was 116 % of control.

For CCOC(C)(OCC)N(C)C (tested in a mixture with another compound), the T/C (dose: 35.5 mg/kg/injection, schedule: Q01DX005 (ip), vehicle: saline with Tween-80) was 101 % of control, the T/C (dose: 71.0 mg/kg/injection, schedule: Q01DX005 (ip), vehicle: saline with Tween-80) was 102 % of control and the T/C (dose: 142.0 mg/kg/injection, schedule: Q01DX005 (ip), vehicle: saline with Tween-80) was 118 % of control.

For O=C1NN=CC1CCCN=Cc1cc(Br)ccc1O (configuration not stated), the T/C [1] was 96 % of control, the T/C [2] was 104 % of control and the T/C [3] was 114 % of control.

In the case of ClCCCSSCCCCl, the T/C [4] is reported as 107 % of control and the T/C [5] is reported as 110 % of control.

Cc1ccc2c(c1)nc(-c1ccccn1)n2CCc1ccncc1 was tested, and the T/C (dose: 50.0 mg/kg/injection, schedule: Q01DX001 (ip), vehicle: saline with Tween-80) was 95 % of control, the T/C (dose: 100.0 mg/kg/injection, schedule: Q01DX001 (ip), vehicle: saline with Tween-80) was 96 % of control and the T/C (dose: 200.0 mg/kg/injection, schedule: Q01DX001 (ip), vehicle: saline with Tween-80) was 101 % of control.

With CC([NH-])C[NH-].O=S(=O)(O)O.[Pt+2] (configuration not stated) the T/C (dose: 3.12 mg/kg/injection, schedule: Q04DX002 (ip), vehicle: saline) was 154 % of control and the T/C (dose: 12.5 mg/kg/injection, schedule: Q04DX002 (ip), vehicle: saline) was 90 % of control and 118 % of control.

For CC1(C)OC2(C)CCC1C1C2N1C(=O)Nc1cccc2ccccc12 (configuration not stated), the T/C [6] was 99 % of control, the T/C [7] was 97 % of control and the T/C [8] was 93 % of control.

For C[N+]1(Cc2ccccc2)CCC(O)(C(=O)c2ccccc2)CC1 (configuration not stated), the T/C (dose: 15.0 mg/kg/injection, schedule: Q01DX005 (ip), vehicle: saline with Tween-80) was 98 % of control, the T/C [4] was 100 % of control and the T/C [5] was 104 % of control and 86 % of control.

In the case of CC(=O)OC1COC2OC1C(OC(C)=O)C2OC(C)=O (configuration not stated), the T/C [6] is reported as 101 % of control, the T/C [7] is reported as 104 % of control and the T/C [8] is reported as 101 % of control.

In the case of Cn1c2nc(=O)n(-c3ccccc3)c(=O)c-2nc2c1CCCC2, the T/C (dose: 3.13 mg/kg/injection, schedule: Q01DX009 (ip), vehicle: saline with Tween-80) is reported as 100 % of control, the T/C (dose: 6.25 mg/kg/injection, schedule: Q01DX009 (ip), vehicle: saline with Tween-80) is reported as 106 % of control and 109 % of control and the T/C (dose: 12.5 mg/kg/injection, schedule: Q01DX009 (ip), vehicle: saline with Tween-80) is reported as 106 % of control and 116 % of control. The T/C [1] was 110 % of control, the T/C [2] was 115 % of control and the T/C [3] was 116 % of control.

With Brc1ccc(C(Nc2nncs2)Nc2nncs2)cc1 the T/C [5] was 111 % of control, the T/C [9] was 115 % of control and the T/C [10] was 107 % of control.

In the case of Br/N=C1/C=CC=C/C1=N/Br, the T/C (dose: 25.0 mg/kg/injection, schedule: Q01DX005 (ip), vehicle: saline) is reported as 105 % of control and 108 % of control, the T/C (dose: 50.0 mg/kg/injection, schedule: Q01DX005 (ip), vehicle: saline) is reported as 107 % of control and 110 % of control and the T/C (dose: 100.0 mg/kg/injection, schedule: Q01DX005 (ip), vehicle: saline) is reported as 100 % of control and 107 % of control and 123 % of control. For the same molecule, the T/C (dose: 200.0 mg/kg/injection, schedule: Q01DX005 (ip), vehicle: saline) was 98 % of control and 100 % of control and 106 % of control.

For CC([C@H](c1ccccc1)C1CCC(C(N)=O)(N2CCOCC2)C1)[N+](=O)[O-] (some centres not stated), the T/C (dose: 60.0 mg/kg/injection, schedule: Q01DX005 (ip), vehicle: Klucel (hydroxypropylcellulose) (HPC)) was 99 % of control, the T/C (dose: 120.0 mg/kg/injection, schedule: Q01DX005 (ip), vehicle: Klucel (hydroxypropylcellulose) (HPC)) was 99 % of control and the T/C (dose: 240.0 mg/kg/injection, schedule: Q01DX005 (ip), vehicle: Klucel (hydroxypropylcellulose) (HPC)) was 93 % of control.

With O=C(O)Cc1cn2cccnc2n1 the T/C (dose: 50.0 mg/kg/injection, schedule: Q04DX002 (ip), vehicle: saline with Tween-80) was 115 % of control, the T/C [11] was 99 % of control and the T/C [12] was 96 % of control.

In the case of N#CC1C(=O)NC(=S)NC1c1ccc(Cl)c(Cl)c1 (configuration not stated), the T/C [13] is reported as 100 % of control, the T/C [14] is reported as 95 % of control and the T/C [15] is reported as 95 % of control.

In the case of CC1(C)CC(=O)C2=C(C1)CC1(C)CC(C)(C)CC2(OC(=O)Cc2ccccc2)C1 (configuration not stated), the T/C (dose: 50.0 mg/kg/injection, schedule: Q01DX005 (ip), vehicle: Klucel (hydroxypropylcellulose) (HPC)) is reported as 98 % of control, the T/C (dose: 100.0 mg/kg/injection, schedule: Q01DX005 (ip), vehicle: Klucel (hydroxypropylcellulose) (HPC)) is reported as 95 % of control and the T/C (dose: 200.0 mg/kg/injection, schedule: Q01DX005 (ip), vehicle: Klucel (hydroxypropylcellulose) (HPC)) is reported as 92 % of control.

CC(=O)[O][Hg][c]1c(N)c(Cl)cc(C)c1F was tested, and the T/C (dose: 3.12 mg/kg/injection, schedule: Q01DX009 (ip), vehicle: Klucel (hydroxypropylcellulose) (HPC)) was 91 % of control and the T/C (dose: 6.25 mg/kg/injection, schedule: Q01DX009 (ip), vehicle: Klucel (hydroxypropylcellulose) (HPC)) was 86 % of control.

With O=C1CCC(Cc2ccc(Br)cc2)C(=O)N1 (configuration not stated) the T/C [5] was 104 % of control, the T/C [9] was 98 % of control and the T/C [10] was 98 % of control.

O=C1CSCc2nc3ccccc3n21 was tested, and the T/C (dose: 100.0 mg/kg/injection, schedule: Q01DX001 (ip), vehicle: saline) was 95 % of control, the T/C (dose: 100.0 mg/kg/injection, schedule: Q01DX009 (ip), vehicle: saline) was 103 % of control and the T/C (dose: 200.0 mg/kg/injection, schedule: Q01DX001 (ip), vehicle: saline) was 104 % of control. For the same molecule, the T/C (dose: 200.0 mg/kg/injection, schedule: Q01DX009 (ip), vehicle: saline) was 103 % of control and the T/C (dose: 400.0 mg/kg/injection, schedule: Q01DX001 (ip), vehicle: saline) was 104 % of control.

In the case of O=[N+]([O-])Nc1ccccn1, the T/C (dose: 100.0 mg/kg/injection, schedule: Q04DX002 (ip), vehicle: saline) is reported as 114 % of control, the T/C (dose: 200.0 mg/kg/injection, schedule: Q04DX002 (ip), vehicle: saline) is reported as 110 % of control and the T/C (dose: 400.0 mg/kg/injection, schedule: Q04DX002 (ip), vehicle: saline) is reported as 97 % of control.

With O=c1cc(-c2ccccc2)oc2c(OCc3ccccc3)c(OCc3ccccc3)ccc12 the T/C [11] was 100 % of control, the T/C [12] was 102 % of control and the T/C (dose: 400.0 mg/kg/injection, schedule: Q04DX002 (ip), vehicle: saline with Tween-80) was 96 % of control.

O=P(c1cccs1)(c1cccs1)c1cccs1 was tested, and the T/C [13] was 96 % of control, the T/C [14] was 92 % of control and the T/C [15] was 101 % of control.

O=C1OCC/C1=C1/Nc2ccccc2NC1=O was tested, and the T/C [1] was 89 % of control and the T/C [3] was 91 % of control.
